Experimental data published in patent US5234917A, “Substituted 5-(alkyl)carboxamide imidazoles” (priority 1990, dated 1993).

Tested on: pressor response to exogenous angiotensin II
Test: Inhibition of Pressor Response to Angiotensin II in Conscious Rats
Assay type: in vivo
Settings: Rattus norvegicus, mean arterial pressure, 250 mg/kg angiotensin II i.v. as printed, compounds given intravenously or orally at 3 to 300 mg/kg (route not given), read-out: IC50 (dose of compound needed to produce 50% inhibition of the control pressor response to angiotensin II)
Procedure: Angiotensin II antagonist activity of the compounds of Formula (I) is assessed by in vitro and in vivo methods. In vitro antagonist activity is determined by the ability of the compounds to compete with ^125 I-angiotensin II for binding to vascular angiotensin II receptors and by their ability to antagonize the contractile response to angiotensin II in the isolated rabbit aorta. In vivo activity is evaluated by the efficacy of the compounds to inhibit- the pressor response to exogenous angiotensin II in conscious rats and to lower blood pressure in a rat model of renin dependent hypertension.
Rats are prepared with indwelling femoral arterial and venous catheters and a stomach tube (Gellai et al., Kidney Int. 15:419, 1979). Two to three days following surgery the rats are placed in a restrainer and blood pressure is continuously monitored from the arterial catheter with a pressure transducer and recorded on a polygraph. The change in mean arterial pressure in response to intravenous injections of […] angiotensin II is compared at various time points prior to and following the administration of the compounds intravenously or orally at doses of 3 to 300 mg/kg. The dose of compound needed to produce 50% inhibition of the control response to angiotensin II (IC50) is used to estimate the potency of the compounds.

CCCCc1ncc(CC(=O)N[C@@H](Cc2ccccc2)C(=O)O)n1Cc1ccccc1Cl [Example 14, N-[{2-n-Butyl-1-(2-chlorophenyl)methyl-1H-imidazol-5-yl}methylcarbonyl]-L-phenylalanine]
ED50: 16 mg/kg
